Values of other authors as cited in patent US7893284B2 (Sterix Limited, priority 2004, dated 2011).

Experiments:
[1] = biological target: T1, rat liver E1-STS (Rattus norvegicus, UniProt P15589); settings: administered orally or subcutaneously; cited from earlier work
T1 construct: host or cells: rat liver (after oral or subcutaneous dosing)
T1 sequence (P15589 20-577): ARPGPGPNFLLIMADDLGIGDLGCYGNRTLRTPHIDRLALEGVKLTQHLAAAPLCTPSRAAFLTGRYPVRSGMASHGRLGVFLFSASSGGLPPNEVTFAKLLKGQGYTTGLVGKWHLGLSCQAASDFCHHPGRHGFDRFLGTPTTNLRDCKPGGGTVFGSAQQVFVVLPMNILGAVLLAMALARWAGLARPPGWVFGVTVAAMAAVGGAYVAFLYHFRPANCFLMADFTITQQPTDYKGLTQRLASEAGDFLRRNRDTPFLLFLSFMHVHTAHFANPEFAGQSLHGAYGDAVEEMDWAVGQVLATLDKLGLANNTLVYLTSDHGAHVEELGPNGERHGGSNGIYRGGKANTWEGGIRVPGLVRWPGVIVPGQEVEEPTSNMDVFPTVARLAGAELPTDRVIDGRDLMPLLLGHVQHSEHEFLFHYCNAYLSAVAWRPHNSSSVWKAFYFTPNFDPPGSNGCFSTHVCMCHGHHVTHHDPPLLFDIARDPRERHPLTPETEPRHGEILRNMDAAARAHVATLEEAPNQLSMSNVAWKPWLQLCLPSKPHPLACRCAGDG

[2] = biological target: T2, DHA-STS (Rattus norvegicus, UniProt P15589); settings: administered orally or subcutaneously; cited from earlier work
T2 construct: host or cells: rat liver (after oral or subcutaneous dosing)
T2 sequence (P15589 20-577): T1 sequence (P15589 20-577)

[3] = cited from earlier work
[4] = biological target: T3, E1-STS (Homo sapiens, UniProt P08842); settings: 0.1 nM; cited from earlier work
T3 construct: host or cells: intact MCF-7 cells (endogenous enzyme)
T3 sequence (P08842 22-583): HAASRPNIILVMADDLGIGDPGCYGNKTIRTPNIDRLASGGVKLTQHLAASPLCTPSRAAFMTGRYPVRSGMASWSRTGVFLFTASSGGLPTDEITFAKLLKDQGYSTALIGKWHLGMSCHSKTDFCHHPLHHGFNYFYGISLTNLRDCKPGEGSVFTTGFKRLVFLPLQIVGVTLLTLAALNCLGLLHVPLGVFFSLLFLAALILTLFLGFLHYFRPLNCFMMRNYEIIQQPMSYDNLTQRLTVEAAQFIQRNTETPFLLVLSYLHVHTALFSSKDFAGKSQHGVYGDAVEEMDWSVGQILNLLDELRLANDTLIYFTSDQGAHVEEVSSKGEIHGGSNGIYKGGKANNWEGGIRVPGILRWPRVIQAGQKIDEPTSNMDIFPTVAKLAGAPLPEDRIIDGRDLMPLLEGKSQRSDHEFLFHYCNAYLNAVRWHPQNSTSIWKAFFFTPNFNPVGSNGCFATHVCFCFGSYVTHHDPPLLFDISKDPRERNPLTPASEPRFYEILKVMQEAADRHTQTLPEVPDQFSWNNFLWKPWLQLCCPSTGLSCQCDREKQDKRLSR

[5] = biological target: T4, steroid sulphatase (Homo sapiens, UniProt P08842); settings: compared with EMATE; cited from earlier work
T4 sequence (P08842 22-583): T3 sequence (P08842 22-583)

For CC12CCC3c4ccc(OS(N)(=O)=O)cc4CCC3C1CCC2=O (stereo not drawn) [EMATE, oestrone-3-sulphamate], the “inhibition of rat liver E1-STS” value [1] is listed as 99%, the “inhibition of rat liver DHA-STS” value [2] is listed as 99% and the “oral uterotrophic activity in rats, times higher than that of estradiol” value ([3]; oral, rats) is listed as 100 times. For the same compound, the “inhibition of E1-STS activity in intact MCF-7 cells” value [4] was “more than 99%”.

For COc1cc2c(cc1OS(N)(=O)=O)CC[C@@H]1[C@@H]2CC[C@]2(C)C(=O)CC[C@@H]12 [2-methoxyoestrone-3-O-sulphamate], the oestrogenicity ([3]; rat, in vivo) is given as “devoid of oestrogenicity” and the “potency as a steroid sulphatase inhibitor” value [5] is given as “equipotent with EMATE”.
